# Experimental data as given in ChEMBL document CHEMBL6134821, “Design, synthesis, and biological evaluation of novel BTK-targeting proteolysis targeting chimeras (PROTACs) with enhanced pharmacokinetic properties” (Eur J Med Chem, 2025).
# Activity calls are given as the source filed them. No cut-off for these calls is given here.
# What was measured:
# [1] = target: T1, Protein cereblon/Tyrosine-protein kinase BTK (Homo sapiens, UniProt Q06187+Q96SW2); assay: PROTAC activity at CRBN/BTK in human JeKo-1 cells assessed as BTK degradation at 10 nM incubated for 24 hrs in presence of MLN-4924 by Western blot analysis; type: cell-based
# Target sequence in this assay (Q06187 2-659 limits assumed): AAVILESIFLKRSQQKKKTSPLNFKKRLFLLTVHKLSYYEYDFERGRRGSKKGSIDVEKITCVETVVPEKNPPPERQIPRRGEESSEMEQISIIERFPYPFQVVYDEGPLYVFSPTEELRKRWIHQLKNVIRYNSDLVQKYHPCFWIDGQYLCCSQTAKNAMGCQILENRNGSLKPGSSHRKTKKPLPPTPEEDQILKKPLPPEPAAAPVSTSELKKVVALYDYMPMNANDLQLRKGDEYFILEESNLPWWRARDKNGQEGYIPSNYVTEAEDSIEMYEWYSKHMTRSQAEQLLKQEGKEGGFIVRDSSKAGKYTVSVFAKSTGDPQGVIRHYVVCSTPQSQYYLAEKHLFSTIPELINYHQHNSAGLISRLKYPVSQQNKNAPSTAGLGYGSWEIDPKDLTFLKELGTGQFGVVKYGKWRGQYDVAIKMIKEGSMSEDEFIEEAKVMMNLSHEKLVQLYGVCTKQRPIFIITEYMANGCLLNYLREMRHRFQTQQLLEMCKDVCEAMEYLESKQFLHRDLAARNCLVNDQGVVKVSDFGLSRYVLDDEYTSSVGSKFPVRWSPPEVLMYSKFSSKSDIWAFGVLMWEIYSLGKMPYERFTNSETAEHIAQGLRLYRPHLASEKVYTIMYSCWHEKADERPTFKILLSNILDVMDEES
# Target sequence in this assay (Q96SW2 whole entry partner): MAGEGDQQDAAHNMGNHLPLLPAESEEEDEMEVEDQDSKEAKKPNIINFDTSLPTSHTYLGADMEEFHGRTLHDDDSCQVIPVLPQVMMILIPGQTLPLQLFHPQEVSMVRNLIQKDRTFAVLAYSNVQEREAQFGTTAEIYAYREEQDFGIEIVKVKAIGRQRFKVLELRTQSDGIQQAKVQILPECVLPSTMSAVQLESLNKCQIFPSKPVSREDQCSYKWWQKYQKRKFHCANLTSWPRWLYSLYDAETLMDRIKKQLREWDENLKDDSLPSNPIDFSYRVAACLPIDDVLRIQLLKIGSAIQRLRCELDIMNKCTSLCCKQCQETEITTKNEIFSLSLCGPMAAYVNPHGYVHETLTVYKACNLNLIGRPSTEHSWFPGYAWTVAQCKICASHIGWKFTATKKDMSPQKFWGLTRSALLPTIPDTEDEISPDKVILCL
# [2] = target: T1, Protein cereblon/Tyrosine-protein kinase BTK; assay: PROTAC activity at CRBN/BTK in human JeKo-1 cells assessed as BTK degradation at 30 nM incubated for 24 hrs by Western blot analysis relative to control; type: cell-based
# Target sequence in this assay (Q06187 2-659 limits assumed): as the sequence (Q06187 2-659 limits assumed) above
# Target sequence in this assay (Q96SW2 whole entry partner): as the sequence (Q96SW2 whole entry partner) above
# [3] = Drug concentration in plasma of mouse at 30 mg/kg, ip measured after 24 hrs by LC-MS/MS analysis; type: ADME, organism-based
# [4] = Microsomal stability in human liver microsomes assessed as intrinsic clearance in liver measured up to 60 mins in presence of NADPH by LC-MS/MS analysis; type: ADME, Microsome; details: read-out: CLH
# [5] = target: T1, Protein cereblon/Tyrosine-protein kinase BTK; assay: PROTAC activity at CRBN/BTK in human JeKo-1 cells assessed as BTK degradation at 10 nM incubated for 24 hrs in presence of bortezomib by Western blot analysis; type: cell-based
# Target sequence in this assay (Q06187 2-659 limits assumed): as the sequence (Q06187 2-659 limits assumed) above
# Target sequence in this assay (Q96SW2 whole entry partner): as the sequence (Q96SW2 whole entry partner) above
# [6] = Microsomal stability in human liver microsomes assessed as intrinsic clearance in microsomes measured up to 60 mins in presence of NADPH by LC-MS/MS analysis; type: ADME, Microsome; details: read-out: CLH
# [7] = target: T1, Protein cereblon/Tyrosine-protein kinase BTK; assay: PROTAC activity at CRBN/BTK in human JeKo-1 cells assessed as BTK degradation incubated for 8 hrs by Western blot analysis; type: cell-based; details: dose 0.1-1000 nM
# Target sequence in this assay (Q06187 2-659 limits assumed): as the sequence (Q06187 2-659 limits assumed) above
# Target sequence in this assay (Q96SW2 whole entry partner): as the sequence (Q96SW2 whole entry partner) above
# [8] = Cytotoxicity against human TMD8 cells harboring wild-type BTK assessed as inhibition of cell viability incubated for 5 days by CCK8 assay; type: functional, cell-based; details: TMD8, 120 h
# [9] = Cytotoxicity against human TMD8 cells harboring BTK C481S mutant assessed as inhibition of cell viability incubated for 5 days by CCK8 assay; type: functional, cell-based; details: TMD8, 120 h
# [10] = target: T1, Protein cereblon/Tyrosine-protein kinase BTK; assay: PROTAC activity at CRBN/BTK in human JeKo-1 cells assessed as BTK degradation at 100 nM measured after 4 hrs by Western blot analysis relative to control; type: cell-based
# Target sequence in this assay (Q06187 2-659 limits assumed): as the sequence (Q06187 2-659 limits assumed) above
# Target sequence in this assay (Q96SW2 whole entry partner): as the sequence (Q96SW2 whole entry partner) above
# [11] = target: T1, Protein cereblon/Tyrosine-protein kinase BTK; assay: PROTAC activity at CRBN/BTK in human JeKo-1 cells assessed as BTK degradation at 10 nM incubated for 24 hrs by Western blot analysis relative to control; type: cell-based
# Target sequence in this assay (Q06187 2-659 limits assumed): as the sequence (Q06187 2-659 limits assumed) above
# Target sequence in this assay (Q96SW2 whole entry partner): as the sequence (Q96SW2 whole entry partner) above
# [12] = target: T1, Protein cereblon/Tyrosine-protein kinase BTK; assay: PROTAC activity at CRBN/BTK in human JeKo-1 cells assessed as BTK degradation incubated for 24 hrs by Western blot analysis; type: cell-based; details: for Activity: dose 0.01-1000 nM
# [13] = target: Protein cereblon/Tyrosine-protein kinase BTK (Homo sapiens, UniProt Q06187+Q96SW2, C481S); assay: (§1) PROTAC activity at CRBN/BTK C481S mutant (unknown origin) expressed in human TMD8 cells assessed as BTK degradation measured after 24 hrs by Western blot analysis; type: cell-based
# [14] = test system: Protein cereblon/Tyrosine-protein kinase BTK (Homo sapiens), Q06187+Q96SW2 [C481S]; assay: as §1; type: cell-based; details: dose 0.1-1000 nM
# [15] = Microsomal stability in human liver microsomes assessed as compound remaining measured up to 60 mins by LC-MS/MS analysis; type: ADME, Microsome; details: read-out: Stability
# [16] = target: T1, Protein cereblon/Tyrosine-protein kinase BTK; assay: PROTAC activity at CRBN/BTK in human JeKo-1 cells assessed as BTK degradation at 100 nM by Western blot analysis; type: cell-based; details: time 1-24 hrs
# [17] = test system: JeKo-1; assay: Effect on GSPT1 level in human JeKo-1 cells at 0.1 to 1000 nM incubated for 8 hrs by Western blot analysis; type: functional, cell-based; details: dose 0.1-1000 nM
# [18] = target: T1, Protein cereblon/Tyrosine-protein kinase BTK; assay: PROTAC activity at CRBN/BTK in human JeKo-1 cells assessed as BTK degradation at 100 nM incubated for 24 hrs by Western blot analysis relative to control; type: cell-based
# [19] = test system: JeKo-1; assay: Effect on IKZF3 level in human JeKo-1 cells at 0.1 to 1000 nM incubated for 8 hrs by Western blot analysis; type: functional, cell-based; details: dose 0.1-1000 nM
# [20] = Toxicity in mouse at 2 mg/kg, iv measured for 0.083 to 24 hrs by LC-MS/MS analysis; type: organism-based; details: in vivo, time 0.083-24 hrs
# [21] = Microsomal stability in human liver microsomes assessed as compound remaining measured up to 60 mins in presence of NADPH by LC-MS/MS analysis; type: ADME, Microsome; details: read-out: Stability
# [22] = target: T1, Protein cereblon/Tyrosine-protein kinase BTK; assay: PROTAC activity at CRBN/BTK in human JeKo-1 cells assessed as hook effect up to 1 uM incubated for 24 hrs by Western blot analysis; type: cell-based
# [23] = Toxicity in mouse at 30 mg/kg, ip measured for 0.083 to 24 hrs by LC-MS/MS analysis; type: organism-based; details: in vivo, time 0.083-24 hrs
# [24] = test system: JeKo-1; assay: Downregulation of BLK level in human JeKo-1 cells at 100 nM incubated for 4 hrs by Label-free MS proteomics analysis; type: functional, cell-based
# [25] = Cmax in mouse at 30 mg/kg, ip measured after 0.083 hrs by LC-MS/MS analysis; type: ADME, organism-based; details: in vivo
# [26] = test system: JeKo-1; assay: Downregulation of CSK level in human JeKo-1 cells at 100 nM incubated for 4 hrs by Label-free MS proteomics analysis; type: functional, cell-based
# [27] = Microsomal stability in human liver microsomes assessed as half life measured up to 60 mins in presence of NADPH by LC-MS/MS analysis; type: ADME, Microsome
# [28] = AUC (0 to t) in mouse at 2 mg/kg, iv measured for 0.083 to 24 hrs by LC-MS/MS analysis; type: ADME, organism-based; details: in vivo, time 0.083-24 hrs
# [29] = target: T1, Protein cereblon/Tyrosine-protein kinase BTK; assay: PROTAC activity at CRBN/BTK in human TMD8 cells assessed as BTK degradation measured after 24 hrs by Western blot analysis; type: cell-based; details: for Activity: dose 0.1-1000 nM
# [30] = target: T1, Protein cereblon/Tyrosine-protein kinase BTK; assay: PROTAC activity at CRBN/BTK in human JeKo-1 cells assessed as BTK degradation at 100 nM incubated for 4 hrs by Label-free MS proteomics analysis; type: cell-based
# [31] = test system: JeKo-1; assay: Effect on IKZF1 level in human JeKo-1 cells at 0.1 to 1000 nM incubated for 8 hrs by Western blot analysis; type: functional, cell-based; details: dose 0.1-1000 nM
# Protein cereblon/Tyrosine-protein kinase BTK (Homo sapiens, UniProt Q06187+Q96SW2, C481S), sequence (Q06187 whole entry, looked up, stated change not applied): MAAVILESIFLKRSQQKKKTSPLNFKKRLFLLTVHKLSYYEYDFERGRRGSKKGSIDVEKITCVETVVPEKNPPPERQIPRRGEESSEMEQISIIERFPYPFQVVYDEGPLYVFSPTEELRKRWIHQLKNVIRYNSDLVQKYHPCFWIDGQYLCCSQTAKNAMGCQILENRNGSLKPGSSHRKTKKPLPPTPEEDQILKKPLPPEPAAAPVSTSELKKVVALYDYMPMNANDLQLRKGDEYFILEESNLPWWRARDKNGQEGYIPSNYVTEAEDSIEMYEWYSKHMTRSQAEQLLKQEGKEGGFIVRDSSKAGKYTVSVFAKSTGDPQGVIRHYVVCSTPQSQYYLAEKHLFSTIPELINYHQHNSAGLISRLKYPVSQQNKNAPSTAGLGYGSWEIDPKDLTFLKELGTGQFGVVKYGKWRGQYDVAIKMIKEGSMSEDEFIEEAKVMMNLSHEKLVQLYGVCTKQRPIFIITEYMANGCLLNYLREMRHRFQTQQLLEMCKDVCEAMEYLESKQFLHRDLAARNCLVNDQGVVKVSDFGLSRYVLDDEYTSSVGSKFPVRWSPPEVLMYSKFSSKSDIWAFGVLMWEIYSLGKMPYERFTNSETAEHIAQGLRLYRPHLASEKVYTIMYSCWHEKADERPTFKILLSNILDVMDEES
# Protein cereblon/Tyrosine-protein kinase BTK (Homo sapiens, UniProt Q06187+Q96SW2, C481S), sequence (Q96SW2 whole entry, looked up, stated change not applied): as the sequence (Q96SW2 whole entry partner) above
Compound,Activity [1],Activity [2] [%],CLint scaled [4] [mL/min/kg],Activity [5],microsomal CLint [6] [µL/min/mg],Activity [7],IC50 [8] [nM],IC50 [9] [nM],Activity [10] [%],Activity [11] [%],DC50 [12] [nM],Activity [12],DC50 [13] [nM],Activity [14],remaining at 1 h [15] [%],Activity [16],Activity [17],Activity [18] [%],Activity [19],remaining at 1 h [21] [%],also measured
O=C1CCC(c2ccc(N3CCC(CCN4CCC(CC(=O)N[C@H]5CC[C@H](Nc6ncnc7[nH]cc(C(=O)c8ccc(Oc9ccccc9)cc8)c67)C5)CC4)CC3)nc2)C(=O)N1 (stereo partly drawn),inactive,94,< 8.6,inactive,< 9.6,Dose-dependent-effect,9.9,18.2,100,89,2.9,Dose-dependent-effect,4.3,Dose-dependent-effect,79.3,Time-dependent-effect; Compound Exhibited Significant Reduction At 1 Hr,inactive,91,inactive,106,concentration at 24 h [3]: > 0.1 µM; Activity [20]: Non-toxic; Activity [22]: inactive; Activity [23]: Non-toxic; Activity [24]: Active; Cmax [25]: 3.67 µM; Activity [26]: Active; half-life [27]: > 2.42 h; AUC(0-t) [28]: 1730 ng·h/mL; DC50 [29]: 2.8 nM; Activity [29]: Dose-dependent-effect; Activity [30]: Active; Activity [31]: inactive
O=C1CCC(c2ccc(N3CCC(CCN4CCC(CC(=O)N[C@H]5CC[C@H](Nc6ncnc7[nH]cc(C(=O)c8ccc(Oc9ccccc9)cc8)c67)C5)CC4)CC3)cc2)C(=O)N1 (stereo partly drawn),inactive,81,< 8.6,inactive,< 9.6,Dose-dependent-effect,24.6,26.5,100,78,1.7,Dose-dependent-effect,5.6,Dose-dependent-effect,99.8,Time-dependent-effect; Compound Exhibited Significant Reduction At 1 Hr,inactive,85,inactive,92.2,Activity [22]: inactive; half-life [27]: > 2.42 h; DC50 [29]: 3.4 nM; Activity [29]: Dose-dependent-effect; Activity [31]: inactive
